Measured values published in PubChem BioAssay (NCI).
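Abbreviation: GI50, concentration required for 50% inhibition of growth. The concentration for full growth arrest is given as TGI.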

Tests used:
Experiment in all cases: NCI-60 cell line screen, 384-well format
SK-OV-3 ovarian = system: SK-OV-3 ovarian
T-47D breast = system: T-47D breast
PC-3 prostate = system: PC-3 prostate
BT-549 breast = system: BT-549 breast
MDA-MB-468 breast = system: MDA-MB-468 breast
NCI-H522 lung = system: NCI-H522 lung
HS 578T breast = system: HS 578T breast
SF-295 CNS = system: SF-295 CNS
CAKI-1 renal = system: CAKI-1 renal
OVCAR-3 ovarian = system: OVCAR-3 ovarian
NCI-H460 NSCLC = system: NCI-H460 NSCLC
SF-268 CNS = system: SF-268 CNS
SK-MEL-28 melanoma = system: SK-MEL-28 melanoma
SR leukemia = system: SR leukemia
HOP-62 NSCLC = system: HOP-62 NSCLC
UACC-257 melanoma = system: UACC-257 melanoma
SN12C renal = system: SN12C renal
TK-10 renal = system: TK-10 renal
MALME-3M melanoma = system: MALME-3M melanoma
CCRF-CEM leukemia = system: CCRF-CEM leukemia
COLO 205 colon = system: COLO 205 colon
SNB-19 CNS = system: SNB-19 CNS
RXF 393 renal = system: RXF 393 renal
U251 glioblastoma = system: U251 glioblastoma
HCT-15 colon = system: HCT-15 colon
HL-60(TB) leukemia = system: HL-60(TB) leukemia
HCC-2998 colon = system: HCC-2998 colon
A498 renal = system: A498 renal
SK-MEL-5 melanoma = system: SK-MEL-5 melanoma
SW-620 colon = system: SW-620 colon
UACC-62 melanoma = system: UACC-62 melanoma
A549 NSCLC = system: A549 NSCLC
KM12 colon = system: KM12 colon
NCI-H23 lung = system: NCI-H23 lung
OVCAR-8 ovarian = system: OVCAR-8 ovarian
SNB-75 CNS = system: SNB-75 CNS
NCI/ADR-RES ovarian = system: NCI/ADR-RES ovarian
NCI-H322M lung = system: NCI-H322M lung
ACHN renal = system: ACHN renal
MOLT-4 leukemia = system: MOLT-4 leukemia
SF-539 CNS = system: SF-539 CNS
MDA-MB-231 breast = system: MDA-MB-231 breast
M14 melanoma = system: M14 melanoma
IGROV1 ovarian = system: IGROV1 ovarian
EKVX NSCLC = system: EKVX NSCLC
HOP-92 NSCLC = system: HOP-92 NSCLC
MDA-MB-435 melanoma = system: MDA-MB-435 melanoma
OVCAR-4 ovarian = system: OVCAR-4 ovarian
HT29 colon = system: HT29 colon
K-562 leukemia = system: K-562 leukemia
OVCAR-5 ovarian = system: OVCAR-5 ovarian
NCI-H226 lung = system: NCI-H226 lung
UO-31 renal = system: UO-31 renal
MCF7 breast = system: MCF7 breast
RPMI-8226 leukemia = system: RPMI-8226 leukemia
DU-145 prostate = system: DU-145 prostate
LOX IMVI melanoma = system: LOX IMVI melanoma
786-0 renal = system: 786-0 renal

`O=C(Nc1ccc(OC(F)(F)F)cc1)c1sccc1NCc1ccnc2ccccc12` gave a GI50 (SK-OV-3 ovarian) of 2.97 µM, a TGI (SK-OV-3 ovarian) of 9.49 µM and a GI50 (T-47D breast) of 2.03 µM. It also gave a TGI (T-47D breast) of 6.57 µM, a GI50 (PC-3 prostate) of 4.56 µM and a TGI (PC-3 prostate) of 25.7 µM. It also gave a GI50 (BT-549 breast) of 5.78 µM, a TGI (BT-549 breast) of 17.7 µM and a GI50 (MDA-MB-468 breast) of 2.06 µM. It also gave a TGI (MDA-MB-468 breast) of 5.16 µM, a GI50 (NCI-H522 lung) of 2.96 µM and a TGI (NCI-H522 lung) of 11.6 µM. The GI50 (HS 578T breast) was 2.66 µM, the TGI (HS 578T breast) was 8.81 µM and the GI50 (SF-295 CNS) was 3.9 µM. For the same compound, the TGI (SF-295 CNS) was 19 µM, the GI50 (CAKI-1 renal) was 3.2 µM and the TGI (CAKI-1 renal) was 14.8 µM. The GI50 (OVCAR-3 ovarian) was 5.25 µM, the TGI (OVCAR-3 ovarian) was 19.6 µM and the GI50 (NCI-H460 NSCLC) was 2.93 µM. The TGI (NCI-H460 NSCLC) was 10.6 µM, the GI50 (SF-268 CNS) was 6.24 µM and the TGI (SF-268 CNS) was 32 µM. It also gave a GI50 (SK-MEL-28 melanoma) of 5.71 µM, a TGI (SK-MEL-28 melanoma) of 35.2 µM and a GI50 (SR leukemia) of 1.81 µM. For the same compound, the TGI (SR leukemia) was 4.06 µM, the GI50 (HOP-62 NSCLC) was 8.26 µM and the TGI (HOP-62 NSCLC) was 71.6 µM. For the same compound, the GI50 (UACC-257 melanoma) was 3.51 µM, the TGI (UACC-257 melanoma) was 13.6 µM and the GI50 (SN12C renal) was 3.82 µM. The TGI (SN12C renal) was 24.8 µM, the GI50 (TK-10 renal) was 11 µM and the TGI (TK-10 renal) was 65 µM. The GI50 (MALME-3M melanoma) was 1.73 µM, the TGI (MALME-3M melanoma) was 8.96 µM and the GI50 (CCRF-CEM leukemia) was 2.03 µM. The TGI (CCRF-CEM leukemia) was 4.44 µM, the GI50 (COLO 205 colon) was 4.4 µM and the TGI (COLO 205 colon) was 22.8 µM. For the same compound, the GI50 (SNB-19 CNS) was 11.9 µM, the TGI (SNB-19 CNS) was > 100 µM and the GI50 (RXF 393 renal) was 2.97 µM. For the same compound, the TGI (RXF 393 renal) was 14.3 µM, the GI50 (U251 glioblastoma) was 11.8 µM and the TGI (U251 glioblastoma) was > 100 µM. It also gave a GI50 (HCT-15 colon) of 3.55 µM, a TGI (HCT-15 colon) of 10.9 µM and a GI50 (HL-60(TB) leukemia) of 1.69 µM. For the same compound, the TGI (HL-60(TB) leukemia) was 3.17 µM, the GI50 (HCC-2998 colon) was 4.65 µM and the TGI (HCC-2998 colon) was 12 µM. It also gave a GI50 (A498 renal) of 2.57 µM, a TGI (A498 renal) of 12.8 µM and a GI50 (SK-MEL-5 melanoma) of 1.66 µM. It also gave a TGI (SK-MEL-5 melanoma) of 3.41 µM, a GI50 (SW-620 colon) of 6.31 µM and a TGI (SW-620 colon) of 23 µM. The GI50 (UACC-62 melanoma) was 2.76 µM, the TGI (UACC-62 melanoma) was 14.3 µM and the GI50 (A549 NSCLC) was 4.5 µM. The TGI (A549 NSCLC) was 52.5 µM, the GI50 (KM12 colon) was 3.74 µM and the TGI (KM12 colon) was 15.9 µM. It also gave a GI50 (NCI-H23 lung) of 2.39 µM, a TGI (NCI-H23 lung) of 8.57 µM and a GI50 (OVCAR-8 ovarian) of 3.99 µM. The TGI (OVCAR-8 ovarian) was 16.2 µM, the GI50 (SNB-75 CNS) was 5.09 µM and the TGI (SNB-75 CNS) was 51.6 µM. It also gave a GI50 (NCI/ADR-RES ovarian) of 2.8 µM, a TGI (NCI/ADR-RES ovarian) of 8.9 µM and a GI50 (NCI-H322M lung) of 4.43 µM. The TGI (NCI-H322M lung) was 40.4 µM, the GI50 (ACHN renal) was 3.39 µM and the TGI (ACHN renal) was 20.7 µM. The GI50 (MOLT-4 leukemia) was 1.93 µM, the TGI (MOLT-4 leukemia) was 3.56 µM and the GI50 (SF-539 CNS) was 5.11 µM. For the same compound, the TGI (SF-539 CNS) was 19.8 µM, the GI50 (MDA-MB-231 breast) was 1.9 µM and the TGI (MDA-MB-231 breast) was 15.2 µM. It also gave a GI50 (M14 melanoma) of 3.56 µM, a TGI (M14 melanoma) of 14.3 µM and a GI50 (IGROV1 ovarian) of 2.47 µM. The TGI (IGROV1 ovarian) was 6.72 µM, the GI50 (EKVX NSCLC) was 3.43 µM and the TGI (EKVX NSCLC) was 19.9 µM. The GI50 (HOP-92 NSCLC) was 3.99 µM, the TGI (HOP-92 NSCLC) was 15.7 µM and the GI50 (MDA-MB-435 melanoma) was 4.65 µM. The TGI (MDA-MB-435 melanoma) was 21.7 µM, the GI50 (OVCAR-4 ovarian) was 4.43 µM and the TGI (OVCAR-4 ovarian) was 19.6 µM. It also gave a GI50 (HT29 colon) of 4.31 µM, a TGI (HT29 colon) of 17.1 µM and a GI50 (K-562 leukemia) of 1.75 µM. For the same compound, the TGI (K-562 leukemia) was 3.66 µM, the GI50 (OVCAR-5 ovarian) was 8.44 µM and the TGI (OVCAR-5 ovarian) was 43.8 µM. The GI50 (NCI-H226 lung) was 4.4 µM, the TGI (NCI-H226 lung) was 19 µM and the GI50 (UO-31 renal) was 8.23 µM. The TGI (UO-31 renal) was > 100 µM, the GI50 (MCF7 breast) was 3.24 µM and the TGI (MCF7 breast) was 15.9 µM. For the same compound, the GI50 (RPMI-8226 leukemia) was 2.06 µM, the TGI (RPMI-8226 leukemia) was 4.59 µM and the GI50 (DU-145 prostate) was 4.94 µM. The TGI (DU-145 prostate) was > 100 µM, the GI50 (LOX IMVI melanoma) was 3.48 µM and the TGI (LOX IMVI melanoma) was 10.6 µM. For the same compound, the GI50 ([…]-0 renal) was 4.38 µM and the TGI (786-0 renal) was 15.6 µM.
